The record followed here is BindingDB's records for doi:10.1016/s0960-894x(02)00064-1 (University of Lyon 1, 2002).

The target in test [1] is Toxoplasma gondii purine nucleoside phosphorylase (Toxoplasma gondii). The test is described as follows: Compound was evaluated for its binding affinity against Toxoplasma gondii purine nucleoside phosphorylase of virulent strain RH (value indicates Non competitive inhibition).
Test [2] has the same target. The test is described as follows: Compound was evaluated for its binding affinity against Toxoplasma gondii purine nucleoside phosphorylase from cystic strain ME 49 (value indicates Non competitive inhibition).
Test [3] shares this target. The test is described as follows: Compound was evaluated for its binding affinity against Toxoplasma gondii purine nucleoside phosphorylase of virulent strain RH (value indicates competitive inhibition).
For test [4] the target is unchanged. The test is described as follows: Compound was evaluated for its binding affinity against Toxoplasma gondii purine nucleoside phosphorylase from cystic strain ME 49 (value indicates competitive inhibition).
For test [5] the target is unchanged. The test is described as follows: Compound was evaluated for its binding affinity against Toxoplasma gondii purine nucleoside phosphorylase of virulent strain RH (value indicates competitive inhibition). This is another data set of the same source.

The Ki is the equilibrium dissociation constant of an inhibitor or competing ligand from its target.

Take `O=C1C=CC(=O)c2c1ncn2Cc1cccc(F)c1` [1-(3-Fluoro-benzyl)-1H-benzoimidazole-4,7-dione]: the inhibition constant Ki in test [1] is 990 µM; in test [2], 520 µM.
On to `O=C1C=CC(=O)c2c1nc(Cc1ccccc1)n2Cc1ccccc1` [1,2-Dibenzyl-1H-benzoimidazole-4,7-dione], for which the Ki in test [3] worked out at 670 µM; in test [4], 350 µM.
In the case of `CCCCn1cnc2c1C(=O)C=CC2=O` [1-Butyl-1H-benzoimidazole-4,7-dione], the inhibition constant Ki in test [1] came to 2960 µM; in test [2], 560 µM.
On to `Cn1cnc2c1C(=O)C=CC2=O` [1-Methyl-1H-benzoimidazole-4,7-dione], for which the affinity in test [1] corresponds to a Ki of 2210 µM.
In the case of `O=c1[nH]cnc2c1cnn2[C@@H]1O[C@H](CO)[C@@H](O)[C@H]1O`, the inhibition constant Ki came to 1800 µM in test [3] and 2000 µM in test [5].
Take `Cc1nc2c(n1Cc1ccccc1)C(=O)C=CC2=O` [1-Benzyl-2-methyl-1H-benzoimidazole-4,7-dione]: the inhibitory constant (Ki) amounted to 1050 µM in test [5] and 300 µM in test [4].
For `O=C1C=CC(=O)c2[nH]cnc21` [1H-Benzoimidazole-4,7-dione], the inhibition constant Ki in test [1] was 1650 µM; in test [2], 550 µM.
The corresponding values for `O=C1C=CC(=O)c2c1ncn2Cc1ccc(F)cc1` [1-(4-Fluoro-benzyl)-1H-benzoimidazole-4,7-dione] are 780 µM and 990 µM.
For `O=C1C=CC(=O)c2c1ncn2Cc1ccccc1F` [1-(2-Fluoro-benzyl)-1H-benzoimidazole-4,7-dione] the same measures were 1480 µM and 1500 µM.
